The values below are quoted from earlier work in US6159733A, “Method for photoinactivating malignant cells” (priority 1996, dated 2000).

One data set relates to cancer cell. To be noted: conditions of the CFU-GM/BFU-E survival data; cited from earlier work.
Data set [1] deals with cell lines in BM mixtures. As to conditions: cited from earlier work.
For the next data set, the system named is CFU-GM. As to conditions: cited from earlier work.
A further data set has as its system malignant cells. As to conditions: cited from earlier work.
A further data set deals with pluripotent stem cells. To be noted: Sieber, Photochem Photobiol. 46:71 (1987); cited from earlier work.
For another data set, the system named is BFU-E. To be noted: cited from earlier work.
Data set [2] has as its system multidrug resistance (mdr) pump. To be noted: cited from earlier work.
For a further data set, the system named is cell types. As to conditions: cited from earlier work.
The mark [3] stands for this setting: Atzpodien, Cancer Res. 46:4892 (1986).

Like-named read-outs stand apart in the source and are kept apart here.

For the compound `CCCCN1C(=O)C(=CC=CC=C2Oc3ccccc3N2CCCS(=O)(=O)O)C(=O)N(CCCC)C1=S` [MC 540, merocyanine-540], the “reduction of cancer cell survival” value with cancer cell is given as 4-5 log10. The “photoinactivation of cell lines mixed with BM” value in data set [1] (BM fraction=0.95-0.99) was “more effectively inactivated in mixtures”. In addition, the “surviving fraction of CFU-GM” value is 0.18 in the data set on CFU-GM (setting [3]) and 0.17 with CFU-GM (Gulliya, Blood 73:1059 (1989)). The “photoinactivation of malignant cells” value with malignant cells is given as “successfully achieved”. In addition, in the data set on pluripotent stem cells, the “depletion of murine pluripotent stem cells” value is given as 1 log10. The “surviving fraction of BFU-E” value was 0.14 in the data set with BFU-E (setting [3]) and 0.04 in the data set with BFU-E (Gulliya, Blood 73:1059 (1989)).
Consider `COc1ccc(CCN(C)CCCC(C#N)(c2ccc(OC)c(OC)c2)C(C)C)cc1OC` (stereo not drawn) [verapamil], for which the “inhibition of the multidrug resistance (mdr) pump” value in data set [2] is “known inhibitor”.
On to Photofrin, for which the “relation of uptake and photosensitivity” value with cell types (Williams, Photochem. Photobiol. 46:733 (1987)) was “increased uptake resulted in increased photosensitivity for each cell type”. The “differences in photoinactivation between cell types” value in the data set with cell types (despite significant differences in photosensitizer uptake) is listed as “marginal differences in photoinactivation”.
With “benzoporphyrinderivative monoacid ring A [BPD-MA]”, the “reduction of cancer cell survival” value in the data set on cancer cell is recorded as 4-5 log10. The “surviving fraction of CFU-GM” value in the data set on CFU-GM (cfu-gm) is on record as 0.04. For the same compound, the “surviving fraction of BFU-E” value in the data set with BFU-E (bfu-e) is listed as 0.05.
As to dihematoporphyrin ether [DHE], the “reduction of cancer cell survival” value in the data set on cancer cell is 4-5 log10. For the same compound, the “surviving fraction of CFU-GM” value in the data set with CFU-GM (Atzpodien, Blood 70:484 (1987)) is recorded as 0.29; with CFU-GM (Lemoli, Blood 81:793 (1993)) it was 0.05. The “photoinactivation of malignant cells” value with malignant cells is listed as “successfully achieved”. The “surviving fraction of BFU-E” value in the data set with BFU-E (Atzpodien, Blood 70:484 (1987)) is given as 0.47; in the data set with BFU-E (Lemoli, Blood 81:793 (1993)) it was 0.10.
As for “sulphonate aluminum phthalocyanine [AlSPc]”, the “reduction of cancer cell survival” value in the data set on cancer cell is on record as 4-5 log10. Moreover, the “photoinactivation of cell lines mixed with BM” value in data set [1] (BM fraction=0.99) is “photoinactivated as effectively as unmixed cell lines”. Further, the “surviving fraction of CFU-GM” value in the data set on CFU-GM (cfu-gm) is listed as 0.60. In the data set with malignant cells, the “photoinactivation of malignant cells” value is on record as “successfully achieved”.
